Source: patent US6500837B2, “Fused ring system containing indole as M4 selective aza-anthracene muscarinic receptor antagonists” (Warner-Lambert Company, priority 2000, dated 2002)
Where “and” joins values, the source holds several entries; their conditions need not be identical. Equal entries are not always repeated.

What was measured:
Conditions in all cases: displacement of [3H]-NMS, membranes from transfected CHO cells; separate determinations in one cell
[1] = target: T1, human muscarinic receptor subtype M1 (Hm1) (Homo sapiens, UniProt P11229); assay: [3H]-NMS receptor binding in CHO cell membranes, Hm1
T1 sequence (P11229 1-460): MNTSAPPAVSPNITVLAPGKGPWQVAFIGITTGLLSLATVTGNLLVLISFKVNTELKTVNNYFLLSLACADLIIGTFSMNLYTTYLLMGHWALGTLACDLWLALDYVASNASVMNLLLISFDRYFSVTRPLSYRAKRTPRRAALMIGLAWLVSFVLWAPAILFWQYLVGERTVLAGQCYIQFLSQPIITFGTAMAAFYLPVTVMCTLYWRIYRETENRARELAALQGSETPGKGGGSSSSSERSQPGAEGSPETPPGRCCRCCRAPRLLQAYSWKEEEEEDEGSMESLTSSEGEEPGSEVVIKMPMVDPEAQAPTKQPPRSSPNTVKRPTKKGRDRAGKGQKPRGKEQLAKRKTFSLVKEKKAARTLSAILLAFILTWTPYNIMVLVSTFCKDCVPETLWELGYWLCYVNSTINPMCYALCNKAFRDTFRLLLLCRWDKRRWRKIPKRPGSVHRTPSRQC
Procedure: (§1) The compounds of Formula I have shown potent binding affinity for muscarinic receptors and are thus useful as muscarinicing antagonists. […] The compounds are evaluated in standard assays used to measure muscarinic receptor binding. Specifically, the compounds are evaluated for their binding affinity toward five human muscarinic receptor subtypes (M1-M5) by the method of Dorje et al., J. Pharm. Exp. Ther., 1991;256:727-733, incorporated herein by reference. The binding is determined by measuring the displacement of [^3H]-NMS binding using membranes from transfected Chinese hamster ovary (CHO) cells. All compounds are tested two to four times with duplicate tubes (SEM is ≦10% in all cases).

[2] = target: human muscarinic receptor subtype M3 (Hm3) (Homo sapiens, UniProt P20309); assay: [3H]-NMS receptor binding in CHO cell membranes, Hm3
human muscarinic receptor subtype M3 (Hm3), sequence (P20309 whole entry): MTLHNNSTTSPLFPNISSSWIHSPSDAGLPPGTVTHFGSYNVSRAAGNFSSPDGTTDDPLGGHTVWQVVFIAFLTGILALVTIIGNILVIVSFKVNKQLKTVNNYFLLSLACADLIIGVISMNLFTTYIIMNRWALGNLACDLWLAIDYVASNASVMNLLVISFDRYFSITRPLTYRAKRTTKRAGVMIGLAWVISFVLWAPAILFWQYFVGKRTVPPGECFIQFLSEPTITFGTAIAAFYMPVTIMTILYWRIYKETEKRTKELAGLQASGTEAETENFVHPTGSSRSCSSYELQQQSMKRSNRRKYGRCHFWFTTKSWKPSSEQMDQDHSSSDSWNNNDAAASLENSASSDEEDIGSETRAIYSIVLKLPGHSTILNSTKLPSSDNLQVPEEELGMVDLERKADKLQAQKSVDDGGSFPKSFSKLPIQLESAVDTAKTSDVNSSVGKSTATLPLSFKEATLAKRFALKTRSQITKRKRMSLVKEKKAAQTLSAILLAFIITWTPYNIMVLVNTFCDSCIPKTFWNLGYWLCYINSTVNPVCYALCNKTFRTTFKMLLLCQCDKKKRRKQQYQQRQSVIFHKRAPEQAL
Procedure: as §1

[3] = target: T2, human muscarinic receptor subtype M4 (Hm4) (Homo sapiens, UniProt P08173); assay: [3H]-NMS receptor binding in CHO cell membranes, Hm4
T2 sequence (P08173 1-479): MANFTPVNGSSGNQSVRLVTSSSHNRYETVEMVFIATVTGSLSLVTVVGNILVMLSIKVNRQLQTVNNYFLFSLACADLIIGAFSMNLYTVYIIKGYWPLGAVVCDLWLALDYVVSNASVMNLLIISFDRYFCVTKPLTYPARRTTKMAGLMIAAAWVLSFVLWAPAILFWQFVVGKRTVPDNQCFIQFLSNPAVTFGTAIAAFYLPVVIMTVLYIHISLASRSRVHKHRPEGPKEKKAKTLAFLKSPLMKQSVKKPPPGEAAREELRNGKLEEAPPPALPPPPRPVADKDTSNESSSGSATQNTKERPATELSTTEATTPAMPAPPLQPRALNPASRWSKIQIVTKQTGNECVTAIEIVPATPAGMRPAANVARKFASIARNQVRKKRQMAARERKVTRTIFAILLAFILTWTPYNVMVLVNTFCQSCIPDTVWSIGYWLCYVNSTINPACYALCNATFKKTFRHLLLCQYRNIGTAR
Procedure: as §1

[4] = target: T3, human muscarinic receptor subtype M2 (Hm2) (Homo sapiens, UniProt P08172); assay: [3H]-NMS receptor binding in CHO cell membranes, Hm2
T3 sequence (P08172 1-466): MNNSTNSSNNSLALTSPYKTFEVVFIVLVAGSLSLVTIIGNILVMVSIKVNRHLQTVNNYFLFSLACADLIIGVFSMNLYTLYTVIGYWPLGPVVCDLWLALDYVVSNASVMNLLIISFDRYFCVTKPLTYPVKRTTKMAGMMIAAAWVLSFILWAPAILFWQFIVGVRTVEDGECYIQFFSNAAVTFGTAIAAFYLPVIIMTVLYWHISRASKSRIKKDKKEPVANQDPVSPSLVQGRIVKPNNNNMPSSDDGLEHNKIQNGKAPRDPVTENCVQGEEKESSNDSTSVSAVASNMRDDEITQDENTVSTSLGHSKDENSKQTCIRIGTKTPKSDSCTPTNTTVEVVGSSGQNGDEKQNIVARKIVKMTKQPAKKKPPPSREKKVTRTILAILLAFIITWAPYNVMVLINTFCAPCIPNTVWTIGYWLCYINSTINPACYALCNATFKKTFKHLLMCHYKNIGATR
Procedure: as §1

[5] = target: T4, human muscarinic receptor subtype M5 (Hm5) (Homo sapiens, UniProt P08912); assay: [3H]-NMS receptor binding in CHO cell membranes, Hm5
T4 sequence (P08912 1-532): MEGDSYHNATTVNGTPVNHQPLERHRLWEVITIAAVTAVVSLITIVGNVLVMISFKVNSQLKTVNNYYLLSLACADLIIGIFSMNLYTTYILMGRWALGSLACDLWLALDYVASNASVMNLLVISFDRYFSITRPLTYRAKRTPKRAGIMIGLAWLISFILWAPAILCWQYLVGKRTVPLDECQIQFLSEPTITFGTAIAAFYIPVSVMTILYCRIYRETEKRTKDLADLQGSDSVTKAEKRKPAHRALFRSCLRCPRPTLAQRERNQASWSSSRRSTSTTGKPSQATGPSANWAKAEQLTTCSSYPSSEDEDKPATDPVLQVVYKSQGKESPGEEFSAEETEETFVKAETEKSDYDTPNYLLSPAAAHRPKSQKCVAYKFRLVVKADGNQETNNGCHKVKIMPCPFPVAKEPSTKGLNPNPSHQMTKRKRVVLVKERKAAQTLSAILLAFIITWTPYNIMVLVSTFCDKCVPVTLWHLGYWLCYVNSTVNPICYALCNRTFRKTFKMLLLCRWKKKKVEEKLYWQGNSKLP
Procedure: as §1

IC50 [1] | IC50 [2] | IC50 [3] | IC50 [4] | IC50 [5] | SMILES
> 10 µM | > 10 µM | > 10 µM | 20 µM and 15 µM | – | CCCc1[nH]c2ccc3c(c2c1C(=O)OCC)CN1CCc2cc(OC)ccc2C1C3 (stereo not shown) [Compound 4, 9-Methoxy-2-propyl-6,11,12,13-tetrahydro-3H6aH-3,12a-diaza-benzo[a]cyclopent[h]anthracene-1-carboxylic acid ethyl ester]
0.5 µM and 0.4 µM | > 10 µM | 2 µM and 3 µM | 0.8 µM and 4 µM | 10 µM and 15 µM | CCCc1[nH]c2cc(Br)c3c(c2c1C(=O)OCC)CN1CCc2cc(OC)ccc2C1C3 (stereo not shown) [Compound 2, 5-Bromo-9-methoxy-2-propyl-6,11,12,13-tetrahydro-3H6aH-3,12a-diaza-benzo[a]cyclopent[h]anthracene-1-carboxylic acid ethyl ester]
0.4 µM | > 10 µM and 20 µM | 3 µM and 0.6 µM | 3 µM | 5 µM and 4 µM | CCOC(=O)c1c(C)[nH]c2cc(Br)c3c(c12)CN1CCc2cc(OC)ccc2C1C3 (stereo not shown) [Compound 1, 5-Bromo-9-methoxy-2-methyl-6,11,12,13-tetrahydro-3H,6aH-3,12a-diaza-benzo[a]cyclopent[h]anthracene-1-carboxylic acid ethyl ester]
> 10 µM and 25 µM | > 10 µM and 5 µM | > 10 µM and 20 µM | 25 µM | 10 µM and 9 µM | CCOC(=O)c1c(C)[nH]c2ccc3c(c12)CN1CCc2cc(OC)ccc2C1C3 (stereo not shown) [Compound 3, 9-methoxy-2-methyl-6,11,12,13-tetrahydro-3H,6aH-3,12a-diaza-benzo[a]cyclopent[h]anthracene-1-carboxylic acid ethyl ester]
